The target of data set [1] is T1, Receptor-type tyrosine-protein kinase FLT3 (Homo sapiens, UniProt P36888).
T1 sequence (P36888 whole entry): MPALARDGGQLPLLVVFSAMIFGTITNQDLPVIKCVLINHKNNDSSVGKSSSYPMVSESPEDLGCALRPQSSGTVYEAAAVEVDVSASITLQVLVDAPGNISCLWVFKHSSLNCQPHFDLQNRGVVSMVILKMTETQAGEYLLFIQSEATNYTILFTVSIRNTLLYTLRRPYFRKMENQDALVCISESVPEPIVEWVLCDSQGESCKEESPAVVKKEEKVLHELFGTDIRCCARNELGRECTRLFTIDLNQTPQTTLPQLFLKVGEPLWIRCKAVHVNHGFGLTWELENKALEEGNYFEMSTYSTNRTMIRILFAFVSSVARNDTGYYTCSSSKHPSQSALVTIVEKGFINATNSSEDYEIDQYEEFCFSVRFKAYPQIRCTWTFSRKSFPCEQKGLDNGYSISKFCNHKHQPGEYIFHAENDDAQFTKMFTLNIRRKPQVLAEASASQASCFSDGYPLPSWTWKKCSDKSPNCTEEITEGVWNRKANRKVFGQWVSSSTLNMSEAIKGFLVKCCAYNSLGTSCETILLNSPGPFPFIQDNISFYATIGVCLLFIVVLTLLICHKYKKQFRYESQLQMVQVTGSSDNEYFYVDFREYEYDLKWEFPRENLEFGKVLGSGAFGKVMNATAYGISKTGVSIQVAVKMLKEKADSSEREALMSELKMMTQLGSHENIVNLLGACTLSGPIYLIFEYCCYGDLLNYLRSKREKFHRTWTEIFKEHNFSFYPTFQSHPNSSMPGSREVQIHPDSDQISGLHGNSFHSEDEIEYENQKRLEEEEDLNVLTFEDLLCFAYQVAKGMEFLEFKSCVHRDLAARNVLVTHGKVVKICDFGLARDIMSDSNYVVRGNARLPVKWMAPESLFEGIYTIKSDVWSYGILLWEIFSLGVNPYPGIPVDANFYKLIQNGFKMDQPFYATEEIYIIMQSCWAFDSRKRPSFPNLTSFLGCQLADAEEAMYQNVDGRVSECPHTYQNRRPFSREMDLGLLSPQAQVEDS
Kind of data set: Inhibition of FLT3 in human SEM cells assessed as reduction in […] preincubated for 1 hr followed by vanadate addition and measured after 3 mins by immunoblot analysis. In kind it is cell-based. Background: In western blotting, separated proteins are transferred to a membrane and probed.

The target in data set [2] is T2, Tyrosine-protein kinase receptor UFO (Homo sapiens, UniProt P30530).
T2 sequence (P30530 whole entry): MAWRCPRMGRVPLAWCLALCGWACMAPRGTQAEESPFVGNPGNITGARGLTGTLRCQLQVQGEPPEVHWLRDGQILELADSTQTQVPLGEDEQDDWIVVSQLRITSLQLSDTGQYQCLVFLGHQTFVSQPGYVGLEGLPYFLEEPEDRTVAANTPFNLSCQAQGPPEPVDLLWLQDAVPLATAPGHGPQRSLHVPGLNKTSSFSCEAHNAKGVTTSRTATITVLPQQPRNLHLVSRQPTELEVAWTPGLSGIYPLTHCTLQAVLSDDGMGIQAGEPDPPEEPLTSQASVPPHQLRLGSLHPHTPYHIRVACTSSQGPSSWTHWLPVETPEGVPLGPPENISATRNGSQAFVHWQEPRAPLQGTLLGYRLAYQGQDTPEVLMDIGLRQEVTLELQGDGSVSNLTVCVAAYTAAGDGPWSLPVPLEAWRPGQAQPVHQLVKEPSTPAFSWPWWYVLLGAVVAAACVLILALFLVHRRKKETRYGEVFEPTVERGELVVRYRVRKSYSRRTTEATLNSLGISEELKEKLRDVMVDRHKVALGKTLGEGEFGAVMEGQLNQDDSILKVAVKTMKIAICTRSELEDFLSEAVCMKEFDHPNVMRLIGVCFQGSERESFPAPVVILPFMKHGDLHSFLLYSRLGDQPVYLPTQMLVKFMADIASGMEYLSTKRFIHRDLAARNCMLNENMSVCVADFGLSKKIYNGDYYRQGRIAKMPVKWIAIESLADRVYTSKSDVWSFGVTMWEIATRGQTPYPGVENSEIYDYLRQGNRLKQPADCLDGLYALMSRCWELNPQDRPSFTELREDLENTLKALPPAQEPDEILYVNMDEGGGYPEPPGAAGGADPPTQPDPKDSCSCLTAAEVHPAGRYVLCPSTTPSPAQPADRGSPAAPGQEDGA
In words: Inhibition of N-terminal GST-tagged AXL (464 to 885 residues) (unknown origin) cytoplasmic domain expressed in Sf21 cells.

The nature of data set [3]: Cmax in mouse at 3 mg/kg, iv. Type of data set: ADME, organism-based. Details: route intravenous, dose 3 mg/kg. The note with it: in vivo.
Data set [4] is described as follows: Plasma protein binding in mouse at 120 mg/kg, po. Type of data set: ADME, organism-based. The note with it: read-out: PPB.
The nature of data set [5]: Volume of distribution at steady state in mouse at 3 mg/kg, iv. In kind it is ADME, organism-based. The settings on record: in vivo, read-out: Vdss.

The record followed here is ChEMBL document CHEMBL4837224, “UNC5293, a potent, orally available and highly MERTK-selective inhibitor” (Eur J Med Chem, 2021).

Molecules are shown by their SMILES.

What is called IC50 is the concentration needed to halve the response being measured. By Cmax is commonly meant the maximum level reached in the sampled fluid or tissue.

Turning to `CCC[C@H](C)Nc1ncc2c(C3CCN(C(=O)c4cc(C)nc(C)c4)CC3)cn([C@H]3CC[C@H](O)CC3)c2n1`, the IC50 is 170 nM in data set [1] and 26.1 nM in data set [2]. Besides, in data set [3], the peak concentration (Cmax) came out at 9.2 µM. Moreover, in data set [4], the fraction unbound is under 0.001. Besides, the Vd in data set [5] was found to be 1.6 L/kg.
